From US6916478B2, “Vaccines and pharmaceutical compositions using membrane vesicles of microorganisms, and methods for preparing same” (priority 1995, dated 2005)

Key:
[1] = tested on: P. aeruginosa strain ATCC 19660; test: Antibiotic susceptibility test (MIC of gentamicin by dilution in MHB); format: cell-based, Pseudomonas aeruginosa; settings: strain ATCC 19660, dilution in MHB
Description: (§1) Antibiotic susceptibility test. The Minimum Inhibitory Concentrations (MICs) of gentamicin were determined by dilution in MHB. The MICs for strains H 103 and ATCC 19660 were 2 and 2.5 μg/ml, respectively.

[2] = tested on: P. aeruginosa strain H 103; test: as above; format: cell-based, Pseudomonas aeruginosa; settings: strain H 103, dilution in MHB
Description: as §1

[3] = tested on: P. aeruginosa 8803; test: Antibiotic susceptibility (broth dilution in Muller-Hinton broth); format: cell-based, Pseudomonas aeruginosa; settings: 8803 (permeability-type gentamicin resistance)
Description: (§2) Antibiotic susceptibility. The susceptibilities of bacterial strains to gentamicin (Sigma) were determined by broth dilution method in Muller-Hinton broth (Kadurugamuwa, J. L. et al, 1993 Antimicrob. Agents Chemother. 37:715-721). The MICs for PAO1, 8803, D2C, and DH5α were 2, 128 (10), 1.0, and 1.0 μg/ml, respectively.

[4] = tested on: P. aeruginosa PAO1; test: as above; format: cell-based, Pseudomonas aeruginosa
Description: as §2

[5] = tested on: Escherichia coli DH5α; test: as above; format: cell-based
Description: as §2

[6] = tested on: Staphylococcus aureus Newman D2C; test: as above; format: cell-based
Description: as §2

[7] = tested on: intracellular S. flexneri; test: g-MV effect on intracellular S. flexneri in infected human colonic epithelial cells; format: cell-based, Shigella flexneri; settings: FIG. 17
Description: Incubation of g-MVs (25 μg MV protein/25 cm^2 cover slip) with S. flexneri infected human colonic epithelial cells (10^7 CFU/25 cm^2 cover slip) (Kadurugamuwa et al, 1991 Infect. Immun. 59:3464-3471) inhibited the multiplication of intracellular bacteria by approximately 88% in the first hour of incubation (FIG. 17). […] Gentamicin could only enter these cells because it was packaged into a bilayered MV which could […] with the otherwise impermeable membrane and liberate its contents into the cytoplasm. Soluble antibiotic had no effect on growth of intracellular bacteria confirming the impermeability of eucaryotic cell membrane to the antibiotic (FIG. 17). […] The small effect of n-MVs on intracellular bacteria was presumably due to murein hydrolases in n-MVs.

[8] = tested on: P. aeruginosa 8803; test: Bactericidal activity (viable counting 0-5 h); format: cell-based, Pseudomonas aeruginosa; settings: MVs 100 μg protein/ml, gentamicin 100 μg/ml, FIG. 23(d)
Description: (§3) Bacteriolytic activity. […] Exponential growth phase cultures grown in TSB were diluted in fresh TSB to produce a bacterial suspension of 10^8 CFU/ml.

[9] = tested on: P. aeruginosa PAO1; test: Bactericidal activity (viable counting 0-5 h); format: cell-based, Pseudomonas aeruginosa; settings: MVs 100 μg protein/ml, gentamicin 2.5×MIC, FIG. 23(c)
Description: as §3

Q: For gentamicin, which “Minimum Inhibitory Concentration (MIC)” value [1] is on record?
A: 2.5 µg/mL

Q: What about the “Minimum Inhibitory Concentration (MIC)” value [2] of the same substance?
A: 2 µg/mL

Q: And the MIC [3]?
A: 128 µg/mL

Q: And the MIC [4]?
A: 2 µg/mL

Q: What about the MIC [5] of the same substance?
A: 1.0 µg/mL

Q: And the MIC [6]?
A: 1.0 µg/mL

Q: And the “effect on growth of intracellular bacteria” value [7]?
A: no effect

Q: What about the “lytic effect on P. aeruginosa 8803 culture” value [8] of the same substance?
A: (almost) direct correspondence between the control culture and the culture subjected to soluble gentamicin

Q: What about the “loss of viability of P. aeruginosa PAO1” value [9] of the same substance?
A: exquisitely sensitive
